Results on 29 compounds are retold here after US12637418B2, “Heterocyclic compounds as antagonist of NMDA” (TAKEDA PHARMACEUTICAL COMPANY LIMITED, priority 2019, dated 2026).

The target of one assay is NMDA receptor composed of four subunits including 2 sets of heterodimers of NR1 and NR2B (human GRIN1 and GRIN2B expressed in HEK293 cell) (Homo sapiens, UniProt Q13224). As to the kind of experiment: NR2B Ca^2+ influx assay. The assay is classed as cell-based. The following applies: 10 μM final compound concentration; 30 μM glutamic acid and 30 μM glycine; HEK293 cells expressing GRIN1 and GRIN2B; Fluo-4 fluorescence. From the text: To confirm the “antagonistic action on an NMDA receptor containing the NR2B subunit” of the compound of the present invention, human embryonic kidney cell expressing the “NMDA receptor composed of four subunits including 2 sets of heterodimers of NR1 and NR2B”, specifically HEK293 cell expressing human glutamate ionotropic receptor NMDA type subunit 1 (GRIN1) and human glutamate ionotropic receptor NMDA type subunit 2B (GRIN2B), was used and the activation suppressive effect on the receptors was measured.
Chain of NMDA receptor composed of four subunits including 2 sets of heterodimers of NR1 and NR2B (human GRIN1 and GRIN2B expressed in HEK293 cell) (Q13224 27-1484, other chains not shown): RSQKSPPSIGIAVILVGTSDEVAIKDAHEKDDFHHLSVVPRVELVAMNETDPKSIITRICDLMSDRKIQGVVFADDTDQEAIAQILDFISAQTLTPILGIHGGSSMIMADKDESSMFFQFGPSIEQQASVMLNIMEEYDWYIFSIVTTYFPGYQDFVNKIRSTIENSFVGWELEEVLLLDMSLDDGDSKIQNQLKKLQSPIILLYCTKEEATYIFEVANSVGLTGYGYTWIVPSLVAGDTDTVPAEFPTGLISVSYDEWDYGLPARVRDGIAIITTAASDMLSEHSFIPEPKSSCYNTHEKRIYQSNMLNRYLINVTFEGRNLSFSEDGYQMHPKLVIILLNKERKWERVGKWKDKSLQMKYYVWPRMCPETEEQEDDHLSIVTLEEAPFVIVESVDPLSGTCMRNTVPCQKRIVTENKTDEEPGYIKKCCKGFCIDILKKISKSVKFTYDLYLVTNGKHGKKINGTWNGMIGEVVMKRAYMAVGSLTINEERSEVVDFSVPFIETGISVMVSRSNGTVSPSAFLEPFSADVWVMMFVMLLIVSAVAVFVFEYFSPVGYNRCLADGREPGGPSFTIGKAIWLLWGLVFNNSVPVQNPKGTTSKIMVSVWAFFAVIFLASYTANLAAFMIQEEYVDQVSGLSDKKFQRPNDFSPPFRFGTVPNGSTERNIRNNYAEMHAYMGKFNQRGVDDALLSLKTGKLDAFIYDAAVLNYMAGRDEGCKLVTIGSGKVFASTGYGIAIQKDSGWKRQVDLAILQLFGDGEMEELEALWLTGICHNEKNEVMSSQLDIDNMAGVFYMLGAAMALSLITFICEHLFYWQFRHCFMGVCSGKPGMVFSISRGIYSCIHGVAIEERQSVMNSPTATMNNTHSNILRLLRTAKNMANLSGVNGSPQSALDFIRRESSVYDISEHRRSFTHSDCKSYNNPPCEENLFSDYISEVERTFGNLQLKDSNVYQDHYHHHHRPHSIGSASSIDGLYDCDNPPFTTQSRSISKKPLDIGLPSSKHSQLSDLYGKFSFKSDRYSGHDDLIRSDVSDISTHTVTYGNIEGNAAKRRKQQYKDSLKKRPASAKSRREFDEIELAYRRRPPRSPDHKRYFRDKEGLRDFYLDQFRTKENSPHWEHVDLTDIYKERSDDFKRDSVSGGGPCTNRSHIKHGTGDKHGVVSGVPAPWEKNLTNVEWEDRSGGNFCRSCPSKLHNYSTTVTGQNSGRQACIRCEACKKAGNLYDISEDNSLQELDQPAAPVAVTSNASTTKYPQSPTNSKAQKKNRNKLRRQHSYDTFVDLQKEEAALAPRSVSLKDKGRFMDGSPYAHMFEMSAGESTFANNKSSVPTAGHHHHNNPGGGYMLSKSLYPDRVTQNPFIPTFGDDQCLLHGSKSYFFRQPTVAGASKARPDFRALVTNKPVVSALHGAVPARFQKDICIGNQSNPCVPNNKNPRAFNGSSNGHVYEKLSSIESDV
HEK293 cells that express GRIN1 and GRIN2B were purchased from ChanTest (Human NMDA (NR1/NR2B) Receptor-expressing, stable replicating cell line (HEK293) catalog No. CT6121).
As an index of the NMDA receptor activation, intracellular calcium ion (Ca^2+) influx caused by the binding of glycine and glutamic acid with NR1 and NR2B, respectively, was used.
HEK293 cells that express GRIN1 and GRIN2B were cultured in DMEM/F-12 (COSMO BIO, 10-092-CM) medium added with 10% FBS (fetal bovine serum, AusGene), 100 units/mL penicillin, 100 μg/mL streptomycin, 500 μg/mL neomycin, 100 μg/mL Zeocin (registered trade mark, Invitrogen), 5 μg/mL Blasticidin in a cell culture flask in an incubator (under 37° C., 5% CO2).
The cells were detached from the flask with trypsin the day before the assay, suspended in a seeding medium (DMEM (Invitrogen, 31053) added with 10% FBS, 100 units/mL penicillin, 100 μg/mL streptomycin) at 8×10^5 cells/mL, seeded by 25 μL per well in a 384-well plate (Falcon, 356663) at 20000 cells/well, and cultured overnight in an incubator. On the day of the assay, tetracycline (Wako Pure Chemical Industries, Ltd., 209-16561) was diluted with the seeding medium at 2 μg/mL, added at 25 μL/well to the plate seeded with the cells, and cultured for 2 hr in an incubator. Thereafter, the medium was removed, and the cells were washed with 50 μL/well assay buffer (137 mM NaCl, 4 mM KCl, 1.8 mM CaCl2, 10 mM HEPES (pH 7.2), 10 mM Glucose, 0.1% BSA). Then, a loading buffer (assay buffer added with 2.5 μM Fluo-4AM, 2 mM Amaranth, 1 mM Tartrazine) was added at 25 μL/well, and the cells were incubated in the incubator for 30 min, and at room temperature for 15 min. A solution of the Example compound diluted with the above-mentioned assay buffer at 30 μM (final concentration 10 μM) was added at 25 μL/well, and the cells were left standing for 15 min at room temperature. Using FDSS7000EX/μCELL (Hamamatsu Photonics K.K.), an assay buffer containing 30 μM glutamic acid and 30 μM glycine was added at 25 μL/well, and fluorescence signals with wavelengths of Excitation 480 nm and Emission 540 nm were measured every 3 seconds for 5 min. The inhibitory activity was calculated as a relative activity value (inhibitory rate) that inhibits 100% of the cumulative value of the fluorescence value of a well added with an assay buffer free of glutamic acid, glycine, relative to the cumulative value of the fluorescence value of each well.
On to `COc1cnc(C#N)cc1CNC(=O)c1ccc(OC(F)(F)F)cc1` [Example 29, N-[(2-cyano-5-methoxypyridin-4-yl)methyl]-4-(trifluoromethoxy)-bezamide], for which the “inhibitory rate (10 μM compound concentration)” value is recorded as 92. The same measure, in the same setting: the same measure for `COc1cnc(C#N)cc1CNC(=O)c1ccc(C(F)(F)F)c(F)c1` [Example 30, N-[(2-cyano-5-methoxypyridin-4-yl)methyl]-3-fluoro-4-(trifluoromethyl)-bezamide]: 87.

The assay is the same for the next values; noted with them: 10 μM final compound concentration; 30 μM glutamic acid and 30 μM glycine; HEK293 cells expressing GRIN1 and GRIN2B; Fluo-4 fluorescence; read-out: inhibitory rate (10 μM compound concentration).
For `N#Cc1ccc(Br)c(CNC(=O)c2ccc(OC(F)(F)F)c(F)c2)c1` [Example 1, N-[(2-bromo-5-cyanophenyl)methyl]-3-fluoro-4-(trifluoromethoxy)benzamide], the inhibition at 10 µM turned out to be 86%. Take `N#Cc1ccc(Br)c(CNC(=O)c2cnc(OC(F)F)c(F)c2)c1` [Example 2, N-[(2-bromo-5-cyanophenyl)methyl]-6-(difluoromethoxy)-5-fluoropyridine-3-carboxamide]: the inhibition at 10 µM is 92%. Still for that read-out and setting: the same measure for `N#Cc1ccc(Br)c(CNC(=O)c2ccc(OC(F)F)c(F)c2)c1` [Example 3, N-[(2-bromo-5-cyanophenyl)methyl]-4-(difluoromethoxy)-3-fluorobenzamide]: 93%; for `N#Cc1ccc(C2CC2)c(CNC(=O)c2ccc(OC(F)(F)F)c(F)c2)c1` [Example 4, N-[(5-cyano-2-cyclopropylphenyl)-methyl]-3-fluoro-4 (trifluoromethoxy)-benzamide]: 94%.

In the case of `N#Cc1ccc(C2CC2)c(CNC(=O)c2cnc(OC(F)F)c(F)c2)c1` [Example 5, N-[(5-cyano-2-cyclopropylphenyl)-methyl]-6-(difluoromethoxy)-5-fluoropyridine-3-carboxamide], the inhibition at 10 µM turned out to be 95%. On the same count and under the same terms, the same measure for `N#Cc1ccc(C2CC2)c(CNC(=O)c2ccc(OC(F)F)c(F)c2)c1` [Example 6, N-[(5-cyano-2-cyclopropylphenyl)-methyl]-4-(difluoromethoxy)-3-fluorobenzamide]: 93%; for `COc1ccc(C#N)cc1CNC(=O)c1cnc(OC(F)F)c(F)c1` [Example 7, N-[(5-cyano-2-methoxyphenyl)methyl]-6-(difluoromethoxy)-5-fluoropyridine-3-carboxamide]: 94%; for `Cc1ccc(C#N)cc1CNC(=O)c1cnc(OC(F)F)c(F)c1` [Example 8, N-[(5-cyano-2-methylphenyl)-methyl]-6-(difluoromethoxy)-5-fluoropyridine-3-carboxamide]: 83%.

Regarding `COc1ccc(C#N)cc1CNC(=O)c1ccc(OC(F)F)c(F)c1` [Example 10, N-[(5-cyano-2-methoxyphenyl)-methyl]-4-(difluoromethoxy)-3-fluorobenzamide], the inhibition at 10 µM was 95%.

As for `COc1ccc(C#N)cc1CNC(=O)c1ccc(OC(F)(F)F)c(F)c1` [Example 11, N-[(5-cyano-2-methoxyphenyl)-methyl]-3-fluoro-4-(trifluoromethoxy)-benzamide], the inhibition at 10 µM was 96%. Still for that read-out and setting: the same measure for `N#Cc1ccc(F)c(CNC(=O)c2cnc(OC(F)F)c(F)c2)c1` [Example 12, N-[(5-cyano-2-fluorophenyl)methyl]-6-(difluoromethoxy)-5-fluoropyridine-3-carboxamide]: 91%; for `N#Cc1ccc(OCC(F)(F)F)c(CNC(=O)c2cnc(OC(F)F)c(F)c2)c1` [Example 13, N-{[5-cyano-2-(2,2,2-trifluoroethoxy)-phenyl]-methyl}-6-(difluoromethoxy)-5-fluoropyridine-3-carboxamide]: 93%; for `N#Cc1ccc(OCC(F)F)c(CNC(=O)c2cnc(OC(F)F)c(F)c2)c1` [Example 14, N-{[5-cyano-2-(2,2-difluoroethoxy)-phenyl]-methyl}-6-(difluoromethoxy)-5-fluoropyridine-3-carboxamide]: 92%.

On to `COc1c(C#N)ccc(F)c1CNC(=O)c1cnc(OC(F)F)c(F)c1` [Example 15, N-[(3-cyano-6-fluoro-2-methoxyphenyl)-methyl]-(difluoromethoxy)-5-fluoropyridine-3-carboxamide], for which the inhibition at 10 µM amounted to 89%.

As for `COc1ncc(C#N)cc1CNC(=O)c1ccc(C(F)(F)F)s1` [Example 16, N-[(5-cyano-2-methoxypyridin-3-yl)methyl]-5-(trifluoromethyl)thiophene-2-carboxamide], the inhibition at 10 µM worked out at 94%. On the same count and under the same terms, the same measure for `Cc1c(C#N)ccc(F)c1CNC(=O)c1cnc(OC(F)F)c(F)c1` [Example 18, N-[(3-cyano-6-fluoro-2-methylphenyl)-methyl]-6-(difluoromethoxy)-5-fluoropyridine-3-carboxamide]: 66%; for `COc1ccc(C#N)nc1CNC(=O)c1cnc(OC(F)F)c(F)c1` [Example 19, N-[(6-cyano-3-methoxypyridin-2-yl)methyl]-6-(difluoromethoxy)-5-fluoropyridine-3-carboxamide]: 89%; for `COc1c(F)cc(C#N)cc1CNC(=O)c1cnc(OC(F)F)c(F)c1` [Example 20, N-[(5-cyano-3-fluoro-2-methoxyphenyl)-methyl]-6-(difluoromethoxy)-5-fluoropyridine-3-carboxamide]: 97%.

With `COc1ncc(C(=O)NCc2cc(C#N)cc(F)c2OC)cc1F` [Example 21, N-[(5-cyano-3-fluoro-2-methoxyphenyl)-methyl]-5-fluoro-6-methoxypyridine-3-carboxamide], the inhibition at 10 µM turned out to be 94%. Consider `COc1cnc(C#N)c(F)c1CNC(=O)c1cnc(OC(F)F)c(F)c1` [Example 22, N-[(2-cyano-3-fluoro-5-methoxypyridin-4-yl)methyl]-6-(difluoromethoxy)-5-fluoropyridine-3-carboxamide], for which the inhibition at 10 µM turned out to be 94%. Regarding `COc1cc(F)c(C#N)cc1CNC(=O)c1cnc(OC(F)F)c(F)c1` [Example 23, N-[(5-cyano-4-fluoro-2-methoxyphenyl)-methyl]-6-(difluoromethoxy)-5-fluoropyridine-3-carboxamide], the inhibition at 10 µM was determined as 98%. On the same count and under the same terms, the same measure for `COc1cc(C#N)cc(CNC(=O)c2cnc(OC(F)F)c(F)c2)c1` [Example 24, N-[(3-cyano-5-methoxyphenyl)-methyl]-6-(difluoromethoxy)-5-fluoropyridine-3-carboxamide]: 97%; for `COc1cc(C#N)cc(CNC(=O)c2cnc(OC(F)F)c(F)c2)c1F` [Example 25, N-[(5-cyano-2-fluoro-3-methoxyphenyl)-methyl]-6-(difluoromethoxy)-5-fluoropyridine-3-carboxamide]: 89%. Still for that read-out and setting: the same measure for `COc1cc(C#N)cc(CNC(=O)c2cnc(OC)c(F)c2)c1F` [Example 26, N-[(5-cyano-2-fluoro-3-methoxyphenyl)-methyl]-5-fluoro-6-methoxypyridine-3-carboxamide]: 75%; for `COc1c(CNC(=O)c2cnc(OC(F)F)c(F)c2)cc(C#N)nc1C` [Example 27, N-[(6-cyano-3-methoxy-2-methyl-pyridin-4-yl)methyl]-6-(difluoromethoxy)-5-fluoropyridine-3-carboxamide]: 77%; for `COc1cnc(C#N)cc1CNC(=O)c1cnc(OC(F)F)c(F)c1` [Example 28, N-[(2-cyano-5-methoxypyridin-4-yl)methyl]-6-(difluoromethoxy)-5-fluoropyridine-3-carboxamide]: 91%.

Test system in the next assay: not given
Assay: not given
The following applies: rodents; cited from earlier work.
In the case of `C[C@@H](CN1CCC(Cc2ccccc2)CC1)[C@@H](O)c1ccc(O)cc1` [Ro25-6981], the “number of occurrence and depth of cortical spreading depression” value was “suppress the number of occurrence and the depth of cortical spreading depression”.
